These are literature values, as cited in patent publication US11357752B2, “Carolacton and derivatives thereof for use in the treatment of cell proliferation disorders” (Helmholtz-Zentrum für Infektionsforschung GmbH, priority 2017, dated 2022).

In general, IC50 refers to the concentration needed to halve the response being measured.

The test system of the data set is MTHFD1 or MTHFD2. The note with it: prior-art inhibitor, poor activity; cited from earlier work.

Consider `Nc1nc2c(c(=O)[nH]1)N1C(=O)N(c3ccc(C(=O)N[C@@H](CCC(=O)O)C(=O)O)cc3)CC1CN2` (stereo partly shown) [LY345899], for which the IC50 is 128 µM.
